Data set [1] can be described thus: Inhibition of hydroxyl radical production by peptides, Cu(II)/ascorbic acid deoxyribose/TBA assay, Example 16. The class given is biochemical. How it is done:
The ability of the peptides listed in Table 14 to inhibit the generation of hydroxyl radicals was tested. Hydroxyl radicals were generated by mixing Cu(II) and ascorbic acid. When deoxyribose was added, the hydroxyl radicals, if present, attacked the deoxyribose to produce fragments. Heating the fragments at low pH produced malonaldehyde that, upon the addition of 2-thiobarbituric acid (TBA), yielded a pink chromogen which was measured spectrophotometrically at 532 nm. Thus, absorbance at 532 nm is a measure of the damage to deoxyribose and, therefore, of hydroxyl radical formation.
To perform the assay, (a) 50 μl of 200 μM CuCl2 in water, (b) water or enough of one of the test peptides in water (total volume of 150 μl) to give peptide:copper ratios of 1:4, 1:2, 1:1, 2:1, 4:1, 6:1 and 8:1, and (c) 525 μl buffer (20 mM KH2PO4 buffer, pH 7.4) were added to test tubes. The test tubes were incubated for 15 minutes at room temperature. Then, 25 μl of 20 mM ascorbic acid in buffer and 250 μl of 7.5 mM 2-deoxy-D-ribose in water were added to each test tube, and the test tubes were incubated for 1 hour at 37° C. Finally, 1 ml of 1% (w/v) TBA in 50 mM NaOH and 1 ml of glacial acetic acid were added to each test tube, and the test tubes were incubated in boiling water for 15 minutes. After the test tubes had cooled for 15 minutes, the absorbance at 532 nm was read. The results are presented in attached FIGS. 26A-V.

A short description of data set [2]: Inhibition of hydroxyl radical production, Cu(II)/ascorbic acid deoxyribose/TBA assay, Example 10. The class given is biochemical. The settings on record: for formation of the pink chromogen: data not shown; for % Inhibition (decrease in absorbance compared to buffer alone): CuCl2 10 μM. How it is done: The ability of the compounds listed above to inhibit the generation of hydroxyl radicals was tested as described in Gutteridge and Wilkins, Biochim. Biophys. Acta, 759:38-41 (1983). Briefly, Cu(II) and ascorbic acid were mixed causing the generation of hydroxyl radicals. Then, deoxyribose was added, and the hydroxyl radicals, if present, attacked the deoxyribose to produce fragments. […]. Thus, absorbance at 532 nm is a measure of the damage to deoxyribose and, therefore, of hydroxyl radical formation.
To perform the assay, CuCl2 in buffer (20 mM KH2PO4 buffer, pH 7.4) and either one of the test compounds in buffer or buffer alone were added to test tubes (final concentration of CuCl2 was 10 μM). The test tubes were incubated for 15 minutes at room temperature. Then, 0.5 mM ascorbic acid in buffer and 1.9 mM 2-deoxy-D-ribose in buffer were added to each test tube, and the test tubes were incubated for 1 hour at 37° C. Finally, 1 ml of 1% (w/v) TBA in 50 mM NaOH and 1 ml of concentrated acetic acid were added to each test tube, and the test tubes were incubated in boiling water for 15 minutes. After the test tubes had cooled for 15 minutes, the absorbance at 532 nm was read.
Histidine and several peptides with histidine in different positions were tested at 1:1 and 2:1 peptide:copper ratios for their ability to inhibit the production of hydroxyl radicals. Also, a peptide having an acetylated aspartic acid (Ac-Asp) as the N-terminal amino acid was also tested. In Table 11, the % inhibition is the percent decrease in absorbance compared to buffer alone divided by the absorbance of the buffer alone.

The subject of data set [3] is human umbilical vein endothelial cells (HUVEC). Briefly: Copper-induced IL-8 secretion from HUVEC (ELISA). Format: cell-based. Particulars: 25 μM CuCl2, 24 hours; P<0.007. How it is done:
Human umbilical vein endothelial cells (HUVEC) (5.0×10^4 cells) were incubated in serum-free and ascorbate-free endothelial cell basal medium-2 (EGM2) medium (BioWhittaker) with ITS supplement with (i) copper, (ii) a tetrapeptide analogue of the high-affinity, N-terminal Cu(II) binding site of human albumin (D-Asp D-Ala D-His D-Lys or d-DAHK), or (iii) both of them (n=3, in duplicate). IL-8 was determined by ELISA (see Example 13). […] Upon visual examination, all cells appeared to be viable at 24 hours.

The nature of data set [4]: Cu(II)/H2O2 hydroxyl radical generation, 2-deoxy-D-ribose degradation (TBA, 532 nm), Example 7. Format: biochemical. Particulars: CuCl2 0.1 mM, H2O2 2.0 mM. How it is done:
The ability of the L-tetrapeptide to inhibit the generation of ROS was tested as described in Gutteridge and Wilkins, Biochim. Biophys. Acta, 759, 38-41 (1983) and Cheeseman et al., Biochem. J., 252, 649-653 (1988). Briefly, Cu(II) and H2O2 were mixed causing the generation of hydroxyl radicals in a Fenton-type reaction. The hydroxyl radicals attack the sugar 2-deoxy-D-ribose (the sugar residue of DNA) to produce fragments. Heating the fragments at low pH produces malonaldehyde that, upon the addition of 2-thiobarbituric acid, yields a pink chromogen which can be measured spectrophotometrically at 532 nm. Thus, the absorbance at 532 nm is a measure of the damage to 2-deoxy-D-ribose.
The assay was performed with and without the L-tetrapeptide. […] Clearly, the L-tetrapeptide inhibited the degradation of 2-deoxy-D-ribose by hydroxyl radicals.

Data set [5] is described as follows: Passage through a model of the blood brain barrier. Format: in vitro ADME.
[6] abbreviates: peptide:copper ratios of 2:1 or less.
Where [7] appears, read: compound:copper 1:1, copper only control 0.767.
Setting [8] is: compound:copper 2:1, copper only control 0.767.
Setting [9] is: compound:copper 1:1, copper only control 0.954.
The mark [10] stands for this setting: compound:copper 2:1, copper only control 0.954.

Residues, ends and D or L forms follow the SMILES beside them. No end group written: not given here.

On to Asp Ala His Lys-NH2 (DAHK-NH2), for which the “inhibition of hydroxyl radical production” value in data set [1] (setting [6]) is given as “effectively inhibited hydroxyl radical production”.

Turning to Catalase, the “formation of the pink chromogen” value in data set [2] (catalase 0-80 nM) was “prevent the formation of the pink chromogen”; in data set [2] (catalase with L-Asp L-Ala L-His L-Lys present at tetrapeptide/copper 1:1), “prevents the formation of the pink chromogen”.

For the compound “DAHGMTCARC (cysteine pairing not given here)”, the “inhibition of hydroxyl radical production” value in data set [1] (setting [6]) was “effectively inhibited hydroxyl radical production”.

As to “Acetylated-L-Asp L-Ala L-His L-Lys L-Ser L-Glu L-Val L-Ala L-His L-Arg L-Phe L-Lys (Ac-DAHKSEVAHRFK; listed as Homo sapiens)”, the “% Inhibition (decrease in absorbance compared to buffer alone)” value in data set [2] (compound:copper 1:1) is reported as 16.9%; in data set [2] (compound:copper 2:1) it was 27.5%. Further, the “Absorbance at 532 nm” value in data set [2] (setting [7]) is 0.633; in data set [2] (setting [8]) it was 0.692.

Consider “L-Asp L-Ala L-His L-Lys L-Ser L-Glu L-Val L-Ala L-His L-Arg L-Phe L-Lys (DAHKSEVAHRFK; listed as Homo sapiens)”, for which the “% Inhibition (decrease in absorbance compared to buffer alone)” value in data set [2] (compound:copper 1:1) turned out to be 13.2%; in data set [2] (compound:copper 2:1), 95.8%. Besides, the entries for the “Absorbance at 532 nm” value in data set [2] (setting [7]) and in data set [2] (setting [8]) were 0.645 and 0.040, respectively.

Regarding “L-His L-Lys L-Ser L-Glu L-Val L-Ala L-His L-Arg L-Phe L-Lys (HKSEVAHRFK; listed as Homo sapiens) [His Lys Ser Glu Val Ala His Arg Phe Lys]”, the “% Inhibition (decrease in absorbance compared to buffer alone)” value in data set [2] (compound:copper 1:1) came to 24.9%; in data set [2] (compound:copper 2:1), 46.6%. Besides, the “Absorbance at 532 nm” value is reported as 0.716 in data set [2] (setting [9]) and 0.509 in data set [2] (setting [10]).

As to Ser Gly His, the “inhibition of hydroxyl radical production” value in data set [1] (setting [6]) was “effectively inhibited hydroxyl radical production”.

With “L-Ala L-His L-Lys L-Ser L-Glu L-Val L-Ala L-His L-Arg L-Phe L-Lys (AHKSEVAHRFK; listed as Homo sapiens)”, the “% Inhibition (decrease in absorbance compared to buffer alone)” value in data set [2] (compound:copper 1:1) was 11.6%; in data set [2] (compound:copper 2:1), 95.1%. Moreover, the “Absorbance at 532 nm” value in data set [2] (setting [9]) turned out to be 0.843; in data set [2] (setting [10]) it was 0.047.

On to “DAHGMTCANC (cysteine pairing not given here)”, for which the “inhibition of hydroxyl radical production” value in data set [1] (1:1 peptide:copper ratio) is reported as “complete inhibition”; in data set [1] (setting [6]), “effectively inhibited hydroxyl radical production”.

As to `[Cl][Cu][Cl]` [CuCl2], in data set [3], the “IL-8 secretion as compared to controls incubated with water” value is given as over 5.5 fold higher.

For the compound Ala Ala His His (AAHH), the “inhibition of hydroxyl radical production” value in data set [1] (1:4 peptide:copper ratio) is given as “complete inhibition”; in data set [1] (setting [6]), “effectively inhibited hydroxyl radical production”.

Consider `C[C@H](NC(=O)[C@@H](N)CC(=O)O)C(=O)N[C@@H](Cc1c[nH]cn1)C(=O)N[C@@H](CCCCN)C(=O)O` [L-Asp L-Ala L-His L-Lys] (H-DAHK-OH), for which the “Percent Inhibition (degradation of 2-deoxy-D-ribose)” value in data set [4] (tetrapeptide 0.12 mM (Cu(II):tetrapeptide 1:1.2)) was 38%; in data set [4] (tetrapeptide 0.2 mM (Cu(II):tetrapeptide 1:2)), 73%. Moreover, the “passage through a model of the blood brain barrier” value in data set [5] is on record as “pass through a model of the blood brain barrier”.

On to Thr Leu His, for which the “inhibition of hydroxyl radical production” value in data set [1] (setting [6]) is recorded as “effectively inhibited hydroxyl radical production”.

The values are drawn from patent publication US20110263817A1, “METAL-BINDING COMPOUNDS AND USES THEREFOR” (priority 1999, published 2011).
